What is called IC50 is the concentration that gives 50% inhibition. Higher therefore signals weaker potency in that assay.

This is an account of results in article PMC12373846, “Hemoglobin as a pseudoperoxidase and drug target for oxidative stress-related diseases” (Signal Transduction and Targeted Therapy, 2025).

Experiment [1] is described as follows: DPPH radical scavenging assay. Conditions: Fig. S1e. As for the experimental part: In a 96-well microplate, samples (20 μl) at concentrations ranging from 0.1 to 100 μM were mixed with 80 μL of 50 mM sodium phosphate buffer (pH 7.2) and 100 μL of DPPH (1,1-diphenyl-2-picrylhydrazyl) solution (250 μM in methanol) and incubated for 30-min in the dark. Each sample was quantified using a microplate fluorescence reader (SpectraMax iD5, Molecular Devices) at absorbance (517 nm). Edaravone was used as a positive control. The radical scavenging activity was estimated using the following equation: sample absorbance / control absorbance ×100. The dose-response curve, EC50 for the DPPH, was calculated and determined by fitting data with GraphPad Prism software. The fitting method had no special handling of outliers.
A general note: DPPH is a stable violet radical that fades when it is reduced.

Experiment [2] deals with primary cultured hippocampal astrocytes. The experiment is described as follows: oROS-G intracellular H2O2 imaging. The settings on record: for oROS-G fluorescence (intracellular H2O2): Fig. 3f. Type of experiment: cell-based, mouse. As for the experimental part: (§1) Primary hippocampal astrocytes were obtained from postnatal day 0‒2 (P0‒2) C57BL/6 mice as previously described.[73] The hippocampal tissue was dissected free of meninges, minced, and dissociated into a single-cell suspension by trituration. The cells were grown in Dulbecco’s modified Eagle’s medium supplemented with D-glucose (4500 mg/L), L-glutamine, sodium pyruvate (110 mg/L), 10% heat-inactivated horse serum, 10% heat-inactivated fetal bovine serum, and 1000 U/ml penicillin‒streptomycin. The cells were maintained at 37 °C in a humidified atmosphere containing 5% CO2.
H2O2 specific, highly sensitive, and fast on-and-off kinetics, a genetically encoded oROS-G plasmid kindly provided by Dr. Andre Berndt. oROS-G was cloned under the GFAP104 promoter and delivered into primary cultured hippocampal astrocytes via the NeoN^TM transfection system (Invitrogen). The cells were treated with various concentrations of Aβ (1 to 10 μM) or 6-OHDA (Tocris, 2547; 10 to 50 μM) to induce aberrant H2O2. For subsequent experiments, 5 μM Aβ and 30 μM 6-OHDA were selected on the basis of initial dose‒response studies. KDS12025 (10 μM) and sodium pyruvate (1 mM) were applied as indicated in each experiment. For live-cell imaging, astrocytes were maintained in a humidified chamber at 37 °C with 5% […] during imaging to preserve physiological conditions. Changes in the fluorescence of oROS-G were recorded via an A1 Nikon confocal microscope equipped with a temperature- and humidity-controlled stage. Images were captured every 20 min for up to 40 h (20for the 6-OHDA experiments) via the NIS-Elements software (Nikon, Japan) for time-lapse imaging. The excitation and emission wavelengths for oROS-G fluorescence were set to 485 nm and 538 nm, respectively. Endpoint fluorescence measurements were also collected for KDS12025 dose-dependent experiments. To analyze the fluorescence intensity, individual regions of interest (ROIs) were manually selected for each astrocyte via NIS-Elements software (Nikon, Japan). The fluorescence intensity changes were normalized to the baseline values (ΔF/F0) to quantify the H2O2 dynamics. To determine the EC50 of KDS12025, endpoint fluorescence intensity data from oROS-G experiments were normalized to those of the Aβ+vehicle control group. The normalized data were analyzed via GraphPad Prism software to fit a four-parameter logistic curve, yielding the EC50 value for the H2O2-decomposing activity of KDS12025.

The test system is the same in experiment [3]. The experiment is described as follows: DCFDA intracellular ROS assay. Type of experiment: cell-based, mouse. The settings on record: for ROS level (DCFDA): Fig. 3d. As for the experimental part:
as §1
The intracellular ROS levels of astrocytes were determined via 2′,7′- dichlorodihydrofluorescein diacetate (DCFDA; Thermo Fisher). Primary cultured hippocampal astrocytes were seeded into black 96-well plates (Ibidi) at a density of 5 × 10⁴ cells per well. The plates were incubated with oligomerized Aβ42 in the presence of KDS12008, KDS12017, KDS12025, HTPEB (10 µM each), and sodium pyruvate (1 mM). These cells were subsequently washed with Ca^2+ and Mg^2+-containing PBS, followed by the application of 30 µM DCFDA and incubation at 37 °C for 30 min in a dark incubator. The mean fluorescence intensity of each well was measured via iD5 microplate readers at 485 nm and 530 nm. The fluorescence values were calculated by subtracting the blank readings and normalizing them to those of the control group.

The target of a further experiment is T1, HRP (Armoracia rusticana, UniProt P00433).
T1 sequence (P00433 31-353): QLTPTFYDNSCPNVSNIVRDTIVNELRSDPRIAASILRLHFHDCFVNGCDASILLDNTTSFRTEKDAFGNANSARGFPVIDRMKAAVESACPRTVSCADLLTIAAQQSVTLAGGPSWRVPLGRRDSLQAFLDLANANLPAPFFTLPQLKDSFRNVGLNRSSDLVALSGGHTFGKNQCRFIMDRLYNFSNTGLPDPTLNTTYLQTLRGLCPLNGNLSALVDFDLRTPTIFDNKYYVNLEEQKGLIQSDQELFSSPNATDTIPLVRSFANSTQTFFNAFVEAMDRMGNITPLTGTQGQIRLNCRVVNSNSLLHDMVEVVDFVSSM
The experiment is described as follows: ROS-Glo H2O2 assay with HRP. The experiment is classed as biochemical, horseradish. As for the experimental part:
Hb (Sigma‒Aldrich, H7379), H2O2 (Sigma‒Aldrich, H1009), and Amplex Red reagents (Invitrogen, A12222) were obtained for the study. A 4 μM H2O2 solution was prepared in 50 mM sodium phosphate buffer (pH 7.2). Then, 49 μl of this mixture was mixed with 1 μl of the test compound in DMSO or distilled water. The mixture was combined with an assay mixture of Amplex Red reagent (20 mM stock to 0.1 mM) and HRP (200 U/ml stock to 0.2 U/ml) and added to the wells at 50 μl/well. After a 60-min incubation at 37 °C, resorufin production was quantified via a microplate fluorescence reader (SpectraMax iD5, Molecular Devices) at ex/em = 535/580 nm. […] For the ROS-Glo assay, the H2O2 substrate solution and ROS-Glo detection solution were prepared according to the manufacturer’s instructions. 10 μM H2O2 and drugs were prepared as in the Amplex Red assay, with HRP, Hb, CAT, or GPx added as needed. The mixture was added to the wells at 100 μl/well and incubated for 60 min at 37 °C. H2O2 substrate solution was added, and the mixture was incubated at room temperature for 30 min. After the H2O2 substrate solution was added and incubated at room temperature for 30 min, the ROS-Glo detection solution was added, and the mixture was incubated for 15 min. Luminescence was measured via iD5 microplate readers. […] The U/ml was calculated on the basis of the amount of H2O2 reduced by Hb during the reaction, using μg/ml and U/mg.
To evaluate the extent of peroxidase function facilitation by HTPEB (1 μM) and KDS12025 (1 μM) in HRP (0.2 U/ml) and Hb (10 μg/ml), we used the ROS-Glo assay over 30 and 60 min. The fold change was calculated by dividing the delta values during the 30-min reaction for the vehicle over drug conditions.

Turning to `CC1=NN(c2ccccc2)C(=O)C1` [Edaravone], the IC50 in experiment [1] was found to be 16.7 µM.

On to `CC(=O)C(=O)[O-].[Na+]` [Sodium pyruvate, sodium pyruvate, reference compound], for which the “oROS-G H2O2 level” value in experiment [2] (6-OHDA 30 μM + sodium pyruvate, Fig. 3k) is reported as 177.0±17.5. Also, the “oROS-G H2O2 level, 40-h imaging” value in experiment [2] (Aβ 5 μM + sodium pyruvate 1 mM, Fig. 3h) was determined as 137.5±9.751; in experiment [2] (putrescine 180 μM + sodium pyruvate 1 mM, Fig. 3i), 189.0±23.55. For the same compound, in experiment [3] (Aβ 5μM + sodium pyruvate 1mM, Fig. 3e), the “Aβ-induced ROS level (DCFDA), normalized to control” value is on record as 149.1±6.194.

Turning to “Aβ: oligomerized Amyloid-beta (Aβ)42 aggregates [reference compound]”, the “oROS-G fluorescence (intracellular H2O2)” value in experiment [2] (Aβ 1μM) is given as 109.4±4.271; in experiment [2] (Aβ 5μM), 140.5±4.407; in experiment [2] (Aβ 10μM), 208.1±3.662. Further, the “ROS level (DCFDA)” value in experiment [3] (Aβ 1μM) was determined as 101.9±6.217; in experiment [3] (Aβ 5μM), 137.3±8.218; in experiment [3] (Aβ 10μM) it was 155.2±9.442.

In the case of “HRP: horseradish peroxidase, plant-derived heme-containing peroxidase”, the “EC50 of HRP for H2O2 decomposition without HTPEB” value with HRP (Fig. S1a) came out at 0.062 U/ml. In addition, in the experiment with HRP (Fig. S1b), the “tau value, reaction time-response of HRP without HTPEB” value stood at 13.7 min.
